Laboratory results from US12448388B2, “PRMT5 inhibitors and uses thereof” (Gilead Sciences, Inc., priority 2023, dated 2025).
pEC50: −log10 of the molar value. Like-named read-outs stand apart in the source and are kept apart here.

Key:
[1] = tested on: Symmetric Di-methyl Arginine (SDMA) signal (PRMT5 inhibition) in HCT116 MTAP-deleted cells; assay: Symmetric di-methyl arginine image-based high content screen assay (SDMA assay), HCT116 MTAP-deleted; format: cell-based; conditions: for pEC50: Homo sapiens, HCT-116, HCT116 MTAP-deleted, class symbols
Procedure, shortened: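 Read-out is imaging of per-cell mean SDMA immunofluorescence (Alexa 488), with cells segmented by DAPI. Cells, MTAP-deleted or wild-type HCT116, were exposed to compound for 3 days at 37 °C before fixation. EC50 derived by 4-parameter non-linear logistic regression.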

[2] = tested on: HCT116 MTAP-deleted cell lines; assay: Cell viability assay (CellTiter-Glo, 7 days), HCT116 MTAP-deleted; format: cell-based; conditions: Homo sapiens, HCT-116, HCT116 MTAP-deleted, class symbols, read-out: CC50
Procedure, shortened: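 First, compounds are serially diluted in DMSO and dispensed into plates, which are frozen until seeding. Next, cells are added and incubated 7 days at 37 °C, 5% CO2, 90% humidity. Finally, CellTiter-Glo reagent is added and luminescence is measured to derive CC50.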

[3] = HCT116 WT versus HCT116 MTAP-deleted
[4] = HCT116 WT vs HCT116 MTAP-deleted

SMILES	EC50 selectivity [1, 3]	pEC50 [1]	CC50 ([2]; cell viability) [nM]	EC50 selectivity [1, 4]	CC50 ([2]; cell viability assay) [nM]
Cc1ncc2c(N)nc3cc(F)c(C(=O)N(C)[C@@H]4COCc5nc(C(F)(F)F)ccc54)cc3n12 [Ff-304, (S)-4-amino-7-fluoro-N,1-dimethyl-N-(2-(trifluoromethyl)-5,8-dihydro-6H-pyrano[3,4-b]pyridin-5-yl)imidazo[1,5-a]quinoxaline-8-carboxamide]	127	8.30 to 9.00	< 100	–	–
CC(=O)N(C)N(Cc1ccc(OC(F)F)cc1F)C(=O)c1ccc2nc(N)c3cnc(C)n3c2c1 [Fc-2, N′-acetyl-4-amino-N-(4-(difluoromethoxy)-2-fluorobenzyl)-N′,1-dimethylimidazo[1,5-a]quinoxaline-8-carbohydrazide]	431	8.30 to 9.00	100 to 1000	–	–
Nc1nc2cnc(C(=O)N3C[C@@H](F)C[C@@H]4Oc5cc(OC(F)(F)F)ccc5[C@@H]43)cc2n2cncc12 [Fg-44, (4-aminoimidazo[1,5-a]pyrido[3,4-e]pyrazin-8-yl)((3S,4aS,9bS)-3-fluoro-7-(trifluoromethoxy)-3,4,4a,9b-tetrahydrobenzofuro[3,2-b]pyridin-1(2H)-yl)methanone]	–	≥ 9.00	–	119	< 100
Cc1ncc2c(N)nc3cnc(C(=O)N4C[C@H](F)C[C@@H]5Oc6cc(C(F)(F)F)ccc6[C@@H]54)cc3n12 (racemic) [Ff-682, Rac-(4-amino-1-methylimidazo[1,5-a]pyrido[3,4-e]pyrazin-8-yl)((3R,4aS,9bS)-3-fluoro-7-(trifluoromethyl)-3,4,4a,9b-tetrahydrobenzofuro[3,2-b]pyridin-1(2H)-yl)methanone]	–	8.30 to 9.00	–	128	< 100
C[C@H]1C[C@@H]2Oc3cc(C(F)(F)F)ccc3[C@@H]2N(C(=O)c2ccc3nc(N)c4cncn4c3c2)C1 (single isomer, unassigned) [Ff-689]	–	≥ 9.00	–	59	< 100
Cc1cc2nc(N)c3cncn3c2cc1C(=O)N(C)[C@@H]1COc2cc(C(F)(F)F)ccc21 [Ff-674, (S)-4-amino-N,7-dimethyl-N-(6-(trifluoromethyl)-2,3-dihydrobenzofuran-3-yl)imidazo[1,5-a]quinoxaline-8-carboxamide]	–	≥ 9.00	–	85	< 100
Nc1nc2ccc(C(=O)N3CCC4(CC4)[C@@H]4Oc5cc(OC(F)(F)F)ccc5[C@@H]43)cc2n2cncc12 [Ff-615, (4-aminoimidazo[1,5-a]quinoxalin-8-yl)((4aS,9bS)-7-(trifluoromethoxy)-2,3,4a,9b-tetrahydro-1H-spiro[benzofuro[3,2-b]pyridine-4,1′-cyclopropan]-1-yl)methanone]	–	≥ 9.00	–	158	< 100
Nc1nc2cnc(C(=O)N3CCC[C@@H]4Oc5cc(OC(F)(F)F)c(F)cc5[C@@H]43)cc2n2cncc12 [Ff-378, (4-aminoimidazo[1,5-a]pyrido[3,4-e]pyrazin-8-yl)((4aS,9bS)-8-fluoro-7-(trifluoromethoxy)-3,4,4a,9b-tetrahydrobenzofuro[3,2-b]pyridin-1(2H)-yl)methanone]	–	≥ 9.00	–	106	< 100
Cc1ncn2c1c(N)nc1cnc(C(=O)N3C[C@@H](F)C[C@@H]4Oc5cc(OC(F)(F)F)ccc5[C@@H]43)cc12 [Fg-46, (4-amino-3-methylimidazo[1,5-a]pyrido[3,4-e]pyrazin-8-yl)((3S,4aS,9bS)-3-fluoro-7-(trifluoromethoxy)-3,4,4a,9b-tetrahydrobenzofuro[3,2-b]pyridin-1(2H)-yl)methanone]	–	≥ 9.00	–	273	< 100
Nc1nc2ccc(C(=O)N(Cc3ccc(C(F)(F)F)cn3)N3CCOCC3)cc2n2cncc12 [Fb-2, 4-amino-N-morpholino-N-((5-(trifluoromethyl)pyridin-2-yl)methyl)imidazo[1,5-a]quinoxaline-8-carboxamide]	48	8.30 to 9.00	< 100	–	–
Nc1nc2cc(F)c(C(=O)N3CCC[C@@H]4Oc5cc(C(F)(F)C(F)(F)F)ncc5[C@@H]43)cc2n2cncc12 [Fg-40, (4-amino-7-fluoroimidazo[1,5-a]quinoxalin-8-yl)((4aS,9bS)-7-(perfluoroethyl)-3,4,4a,9b-tetrahydrofuro[3,2-b:4,5-c′]dipyridin-1(2H)-yl)methanone]	–	≥ 9.00	–	92	< 100
Nc1nc2ccc(C(=O)N(Cc3ccc(C(F)(F)F)cn3)C34CC(C3)C4)cc2n2cncc12 [Fe-1, 4-amino-N-(bicyclo[1.1.1]pentan-1-yl)-N-((5-(trifluoromethyl)pyridin-2-yl)methyl)imidazo[1,5-a]quinoxaline-8-carboxamide]	62	8.30 to 9.00	< 100	–	–
CN(C(=O)c1ccc2nc(N)c3cncn3c2c1)[C@@H]1COc2cc(C34CC(C(F)F)(C3)C4)ccc21 [Ff-641, (S)-4-amino-N-(6-(3-(difluoromethyl)bicyclo[1.1.1]pentan-1-yl)-2,3-dihydrobenzofuran-3-yl)-N-methylimidazo[1,5-a]quinoxaline-8-carboxamide]	–	≥ 9.00	–	389	< 100
Nc1nc2cnc(C(=O)N3CCC[C@@H]4Cc5cc(C(F)(F)F)ccc5[C@@H]43)cc2n2cncc12 (single isomer, unassigned) [Ff-687]	–	≥ 9.00	–	325	< 100
Nc1nc2cc(F)c(C(=O)N3CCO[C@@H]4Cc5cc(Br)ccc5[C@@H]43)cc2n2cncc12 (racemic) [Ff-28, Racemic(4-amino-7-fluoroimidazo[1,5-a]quinoxalin-8-yl)((4aS,9aR)-7-bromo-2,3,9,9a-tetrahydroindeno[2,1-b][1,4]oxazin-4(4aH)-yl)methanone]	256	8.30 to 9.00	< 100	–	–
Nc1nc2ccc(C(=O)N(CC3CC3)[C@@H]3COc4cc(C(F)(F)F)ccc43)cc2n2cncc12 [Ff-407, (S)-4-amino-N-(cyclopropylmethyl)-N-[(3S)-6-(trifluoromethyl)-2,3-dihydrobenzofuran-3-yl]imidazo[1,5-a]quinoxaline-8-carboxamide]	–	≥ 9.00	–	65	< 100
[2H]C1([2H])CC[C@@H]2Oc3cc(C(F)(F)F)ccc3[C@@H]2N1C(=O)c1cc2c(cn1)nc(N)c1c(C)ncn12 [Ff-644, (4-amino-3-methylimidazo[1,5-a]pyrido[3,4-e]pyrazin-8-yl)((4aS,9bS)-7-(trifluoromethyl)-3,4,4a,9b-tetrahydrobenzofuro[3,2-b]pyridin-1(2H)-yl-2,2-d2)methanone]	–	≥ 9.00	–	92	< 100
Cc1ncn2c1c(N)nc1ccc(C(=O)N(C)[C@@H]3COCc4cc(Br)ccc43)cc12 [Fg-13, (S)-4-amino-N-(7-bromoisochroman-4-yl)-N,3-dimethylimidazo[1,5-a]quinoxaline-8-carboxamide]	–	≥ 9.00	–	207	< 100
Cc1ncn2c1c(N)nc1cnc(C(=O)N3C[C@H](C)C[C@@H]4Oc5cc(C(F)(F)F)ccc5[C@@H]43)cc12 [Ff-624, (4-amino-3-methylimidazo[1,5-a]pyrido[3,4-e]pyrazin-8-yl)((3R,4aS,9bS)-3-methyl-7-(trifluoromethyl)-3,4,4a,9b-tetrahydrobenzofuro[3,2-b]pyridin-1(2H)-yl)methanone]	–	< 8.30	–	27	100 to 1000
CN(C(=O)c1cc2c(cc1F)nc(N)c1cncn12)[C@@H]1COc2cc(C(F)(F)F)ncc21 [Ff-673, (S)-4-amino-7-fluoro-N-methyl-N-(6-(trifluoromethyl)-2,3-dihydrofuro[3,2-c]pyridin-3-yl)imidazo[1,5-a]quinoxaline-8-carboxamide]	–	8.30 to 9.00	–	197	< 100
Nc1nc2cnc(C(=O)N3CCC[C@@H]4Oc5cc(C(F)(F)F)ccc5[C@@H]43)cc2n2c(F)ncc12 (single isomer, unassigned) [Ff-625]	–	< 8.30	–	315	100 to 1000
CN(C(=O)c1ccc2nc(N)n3cncc3c2c1)[C@@H]1COc2cc(C(F)(F)F)ccc21 [Fg-9, (S)-5-amino-N-methyl-N-(6-(trifluoromethyl)-2,3-dihydrobenzofuran-3-yl)imidazo[1,5-c]quinazoline-9-carboxamide]	–	< 8.30	–	255	> 1000
Cc1ncc2c(N)nc3ccc(C(=O)N(C)[C@@H]4COc5cc(C#CC6(C)COC6)ccc54)cc3n12 [Ff-20, (S)-4-amino-N,1-dimethyl-N-(6-((3-methyloxetan-3-yl)ethynyl)-2,3-dihydrobenzofuran-3-yl)imidazo[1,5-a]quinoxaline-8-carboxamide]	382	8.30 to 9.00	< 100	–	–
CC(=O)N(C)N(Cc1ccc(C(F)(F)F)cn1)C(=O)c1ccc2nc(N)n3cncc3c2c1 [Fa-1, N′-acetyl-5-amino-N′-methyl-N-((5-(trifluoromethyl)pyridin-2-yl)methyl)imidazo[1,5-c]quinazoline-9-carbohydrazide]	152	< 8.30	> 1000	–	–
